# Laboratory results published in the supplement of paper PMC10307832.
# How the values were obtained:
# Assay in all cases: relative viability (nuclei count vs DMSO), 5 days (fraction); higher = more cells survive
# Dactolisib + Bortezomib = compound: Cn1c(=O)n(-c2ccc(C(C)(C)C#N)cc2)c2c3cc(-c4cnc5ccccc5c4)ccc3ncc21 [Dactolisib] + CC(C)C[C@H](NC(=O)[C@H](Cc1ccccc1)NC(=O)c1cnccn1)B(O)O [Bortezomib] (partner 0.002 µM)
# In short: (§1)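 Relative viability is defined as nuclei in treated wells over nuclei in vehicle wells. Duplicate plates were run and medians reported. Lung cancer cell lines in 1536-well plates were dosed by pin tool one day after seeding, with one drug or with a fixed anchor-drug dose plus five library-drug doses (not always all listed) in √10 steps, and nuclei were counted after 5 days.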
# Dactolisib + Crizotinib = compound: Cn1c(=O)n(-c2ccc(C(C)(C)C#N)cc2)c2c3cc(-c4cnc5ccccc5c4)ccc3ncc21 [Dactolisib] + C[C@@H](Oc1cc(-c2cnn(C3CCNCC3)c2)cnc1N)c1c(Cl)ccc(F)c1Cl [Crizotinib] (partner 1 µM)
# In short: as §1
# AZ505 + Tozasertib = compound: C1CCC(CC1)N(CCNCCC2=C3C(=C(C=C2)O)NC(=O)CO3)C(=O)CCNCCC4=CC(=C(C=C4)Cl)Cl [AZ505] + Cc1cc(Nc2cc(N3CCN(C)CC3)nc(Sc3ccc(NC(=O)C4CC4)cc3)n2)n[nH]1 [Tozasertib] (partner 0.1 µM)
# In short: as §1
# AZ505 + Foretinib = compound: C1CCC(CC1)N(CCNCCC2=C3C(=C(C=C2)O)NC(=O)CO3)C(=O)CCNCCC4=CC(=C(C=C4)Cl)Cl [AZ505] + COc1cc2c(Oc3ccc(NC(=O)C4(C(=O)Nc5ccc(F)cc5)CC4)cc3F)ccnc2cc1OCCCN1CCOCC1 [Foretinib] (partner 0.25 µM)
# In short: as §1
cell line,measurement,setting,value
UMC-11,relative viability,Dactolisib + Bortezomib; first compound 0.002 µM,0.732
same,relative viability,Dactolisib + Bortezomib; first compound 0.006325 µM,0.649
same,relative viability,Dactolisib + Bortezomib; first compound 0.02 µM,0.57
same,relative viability,Dactolisib + Bortezomib; first compound 0.06325 µM,0.261
same,relative viability,Dactolisib + Bortezomib; first compound 0.2 µM,0.18
same,relative viability,Dactolisib + Crizotinib; first compound 0.002 µM,0.556
same,relative viability,Dactolisib + Crizotinib; first compound 0.006325 µM,0.585
same,relative viability,Dactolisib + Crizotinib; first compound 0.02 µM,0.403
same,relative viability,Dactolisib + Crizotinib; first compound 0.06325 µM,0.275
same,relative viability,Dactolisib + Crizotinib; first compound 0.2 µM,0.155
same,relative viability,AZ505 + Tozasertib; first compound 0.08 µM,0.189
same,relative viability,AZ505 + Tozasertib; first compound 0.253 µM,0.206
same,relative viability,AZ505 + Tozasertib; first compound 0.8 µM,0.188
same,relative viability,AZ505 + Tozasertib; first compound 2.53 µM,0.196
same,relative viability,AZ505 + Tozasertib; first compound 8 µM,0.205
same,relative viability,AZ505 + Foretinib; first compound 0.08 µM,0.975
same,relative viability,AZ505 + Foretinib; first compound 0.253 µM,1.15
same,relative viability,AZ505 + Foretinib; first compound 0.8 µM,0.922
same,relative viability,AZ505 + Foretinib; first compound 2.53 µM,1.09
same,relative viability,AZ505 + Foretinib; first compound 8 µM,1.11
